What was measured:
[1] = tested on: renal proximal tubule epithelial (RPTEC) cells; experiment: Cell Titer Glow viability assay, RPTEC cells; type: cell-based, human; conditions: 48 hours
Description: (§1) Considering the anticipated safety profile of a human plasma protein, toxicity of DFO and transferrins (majority Apo, majority Holo and mixtures) was assessed in primary human kidney cells. The renal proximal tubule epithelial (RPTEC) or cortical epithelial (HRCE) cells were treated with the indicated concentrations of majority ApoTf or DFO for 48 hours (FIG. 11A); and RPTEC or HRCE cells were treated for 72 hrs with 4 mg/mL of majority ApoTf, majority HoloTf, mixtures of transferrin (FIG. 11B). After 48 or 72 hours, cells were subjected to a Cell Titer Glow viability assay. Control cells, untreated cells, were set to a value of 100% viable. The average viability and standard deviations are shown for each treatment condition.

[2] = tested on: cortical epithelial (HRCE) cells; experiment: Cell Titer Glow viability assay, HRCE cells; type: cell-based, human; conditions: 48 hours
Description: as §1

NCI-H1650 = experiment: Cell Titer Glow viability assay, NCI-H1650; type: cell-based, human; conditions: 4 mg/mL, 72 hours
Description: (§2) Given the anticipated safety profile of a human plasma protein, toxicity of transferrins (majority Apo, majority Holo and pd-transferrin) in NCI-H1650 and primary human hepatocyte cells was assessed. The human lung cell line, NCI-H1650, and primary human hepatocytes were treated for 72 hours with 4 mg/mL of majority ApoTf, majority HoloTf, or pd-transferrin. After 72 hours, cells were subjected to a Cell Titer Glow viability assay. Control cells, untreated cells, were set to a value of 100% viable. The average viability and standard deviations are shown in FIGS. 14A and 14B for each treatment condition.

Glut1 = Glut1 mRNA expression by qPCR in SH-SY5Y cells; type: cell-based, human
Description: (§3) The stabilization of, and increase in, HIF-1α protein typically leads to an up-regulation of HIF-related genes (increase in the transcription of genes targeted by HIF), i.e. genes that have HIF binding sites in their transcriptional regulatory elements. Two well characterized genes that are activated by HIF-1α protein are Glut1 receptor and VEGF. Therefore, in order to analyze mRNA expression changes in each of these HIF target genes SH-SY5Y cell line cells were cultured and treated with majority ApoTf or majority HoloTf at a concentration of 1 mg/mL and 4 mg/mL under normoxic (21% oxygen) or hypoxic (1% oxygen) conditions for 6 hours. As a negative controls, cells were treated with HSA (1 mg/mL or 4 mg/mL) or were left untreated. After 6 hrs, intracellular mRNA was harvested and tested for Glut1 and VEGF expression levels by qPCR. Expression results were calculated relative to the expression of the corresponding transcript seen in untreated cells. FIGS. 4A and 4B show the expression results obtained for Glut1 receptor and VEGF, respectively. Values in the figures are shown as Relative Gene Expression, with the target gene (Glut1 or VEGF) normalized for housekeeper (beta-actin) expression.
(§4) In addition, mRNA expression levels of Glut1 and VEGF in response to majority Apotransferrin and DFO or IOX2 combinations were determined. […] Where indicated, either 200 uM DFO or 1 uM IOX2 were co-treated with the HSA and majority Apotransferrin. After 6 hr treatments, intracellular mRNA was harvested and tested for Glut1 and VEGF expression levels by qPCR. Values are shown as Relative Gene Expression, with the target gene (Glut1 or VEGF) normalized for housekeeper (beta-actin) expression. Standard deviations are shown.

HIF1alpha protein = HIF1alpha protein levels by ELISA in SH-SY5Y cells; type: cell-based, human
Description: Human neuroblastoma SH-SY5Y cell line cells, cultured in serum free media were treated with plasma derived ApoTf and HoloTf (in both cases at a concentration of 1 mg/mL and 4 mg/mL) for 6 hours under normoxia (21% oxygen) and hypoxia conditions (1% oxygen). […] After 6 hrs intracellular proteins were harvested and tested for HIF1alpha protein levels by ELISA.
Experiment performed in example 1 was repeated but performing treatments for 24 hours and only under normoxic conditions. After 24 hrs intracellular proteins were harvested and tested for HIF1 alpha protein levels by ELISA.
After 6 hrs, intracellular proteins were harvested and tested for HIF1 alpha protein levels by ELISA.
To determine whether Apotransferrin increases the potency of the iron chelator, DFO, and the phd2 inhibitor IOX2; SH-SY5Y neuronal cells cultured in serum free media were treated with 4 mg/mL of the indicated proteins in the presence or absence of small molecule drug under normal oxygen levels. The data shown in FIG. 8A relates to treatment of cells with a combination of DFO or IOX2, at the indicated concentrations, plus 4 mg/mL protein. CoCl2 was used as an experimental positive control. The data shown in FIG. 8B relates to treatment of cells with a combination of 10 uM M30 plus/minus 4 mg/mL protein. The data shown in FIG. 8C relates to treatment of cells with a combination of 200 uM DFO plus/minus 4 mg/mL protein. After 6 hrs intracellular proteins were harvested and tested for HIF1 alpha protein levels by ELISA. Data are shown in pg/mL with standard deviation.

HIF1 alpha protein [3] = experiment: HIF1 alpha protein levels by ELISA in HRCE cells; type: cell-based, human; conditions: 4 mg/mL, 6 hrs, normal oxygen
Description: (§5) It is well-known in the art that many small molecules used for the treatment of conditions related or provoked by hypoxia are toxic and have numerous side effects, e.g. DFO. One of the most apparent side effects of said small molecules is kidney toxicity. Therefore, in order to assess whether transferrin and/or mixtures increase HIF1 alpha levels in primary kidney cells; human primary kidney cells, both primary human renal proximal tubule epithelial (RPTEC) or cortical epithelial cells (HRCE) were obtained. Primary human renal proximal tubule epithelial (RPTEC) or primary cortical epithelial (HRCE) cells cultured in serum free media were treated with 4 mg/mL majority Apo-transferrin, majority Holo-transferrin or various mixtures of each for 6 hrs under normal oxygen levels. After 6 hrs intracellular proteins were harvested and tested for HIF1 alpha protein levels by ELISA. FIGS. 10A and 10B reveal that HIF1 alpha levels are induced with transferrin composed of mixtures of Apo-transferrin and Holo-transferrin in RPTEC and HRCE, respectively.

HIF1 alpha protein [4] = experiment: HIF1 alpha protein levels by ELISA in RPTEC cells; type: cell-based, human; conditions: 4 mg/mL, 6 hrs, normal oxygen
Description: as §5

[5] = tested on: primary human hepatocytes; experiment: Cell Titer Glow viability assay, primary human hepatocytes; type: cell-based; conditions: 4 mg/mL, 72 hours
Description: as §2

VEGF = VEGF mRNA expression by qPCR in SH-SY5Y cells; type: cell-based, human
Description: as §3, §4

SH-SY5Y cells [6] = experiment: Cell Titer Glow viability assay, SH-SY5Y cells; type: cell-based, human; conditions: 4 mg/mL, 72 hours
Description: Since it has been reported that HoloTf is toxic to cells in vivo and in vitro, toxicity of various compositions containing majority ApoTf, majority HoloTf or mixtures of ApoTf+HoloTf was tested in SH-SY5Y cells. SH-SY5Y cells were treated with the indicated concentrations of 4 mg/mL Tf (as indicated in FIG. 5A), M30 or DFO for 72 hours. After 72 hours, cells were subjected to a Cell Titer Glow viability assay. Control cells, untreated cells, were set to a value of 100% viable. The average viability and standard deviations are shown for each treatment condition.

[7] = MCAo (Middle Cerebral Artery occlusion) rat model of brain stroke, infarct volume; type: in vivo; conditions: 385 mg/kg, IV, transient MCAo rat
[8] = Modified Bederson and General Behavioral scores in rats; type: in vivo, rat; conditions: rats intravenously treated
Description: In vivo neurological function was assessed by a modified Bederson score (Bederson et al., 1986b; Crumrine et al., 2011) using the following definitions:
Score 0: No apparent neurological deficits;
Score 1: Body torsion present;
Score 2: Body torsion with right side weakness;
Score 3: Body torsion, right side weakness with circling behavior; and
Score 4: Seizure Activity.
General behavioral scores of rats were developed by the CALS personnel for the purpose of monitoring recovery of animals following surgical procedures (standard CALS post-operative care). A numerical value was assigned to the predetermined behavioral observations.
Score 0: Behavior consistent with a normal naïve rat (i.e. no ipsilateral deficit);
Score 1: Bright/active/responsive; the rat spontaneously moves and explores his cage, responds to external stimuli, explores the top of the cage;
Score 2: Quiet/alert/responsive; reserved behavior but will respond to external stimulus, tends not to rear or explore the top of the cage;
Score 3: Depressed behavior: tends not to move unless prodded, quickly returns to a somnolent state, little to no interest in external stimuli;
Score 4: Unresponsive: remains in a prostrate position even when prodded; and Score 5: Seizure activity requiring euthanasia.

SH-SY5Y cells [9] = experiment: Protection from oligomerized Abeta 1-42 toxicity, ApoGlo caspase 3/7 activation assay; type: cell-based, human; conditions: for inherent toxicity: 4 mg/mL; for protection from Abeta induced toxicity (caspase 3/7 induction): 4 mg/mL for 24 hrs, then oligomerized Abeta1-42 for 72 hours
Description: Upregulation of the HIF pathway is known to play a protective role in a number of neurodegenerative diseases, including pathologies that result in destruction of nerve cells and neurons. Such neurodegenerative diseases include Alzheimer's disease, Parkinson's disease, Huntington's disease, and Amylotrophic Lateral Sclerosis. Since treatment of SH-SY5Y upregulates HIF, treatment of cells with Apo- or Holo-transferrin should provide a protective effect on cells subjected to substances known to induce neurodegeneration. FIG. 7 highlights data assessing whether majorities of Apo- and Holo-transferrin could protect SH-SY5Y cells from the toxic effects of the known neurodegenerative toxin oligomerized Abeta 1-42 peptide (FIG. 7). SH-SY5Y neuronal cells cultured in growth media were treated with 4 mg/mL Apo-transferrin or Holo-transferrin for 24 hrs under normal oxygen levels. After 24 hrs, cells were treated with oligomerized Abeta1-42 peptide for an additional 72 hours. Following treatment with oligomerized Abeta1-42, cells were subjected to a ApoGlo caspase 3/7 activation assay. Control cells, untreated cells, were set to a normalized value of 1. The average caspase induction, relative to control cells, and standard deviations are shown for each treatment condition.

[10] = 4 mg/mL, co-treated with 200 uM DFO or 1 uM IOX2, 6 hr, normal oxygen
[11] = hypoxic (1% oxygen), 6 hours, 1 mg/mL and 4 mg/mL
[12] = 1 mg/mL, 6 hours, hypoxia (1% oxygen), SH-SY5Y
[13] = 1 mg/mL, 6 hours, normoxia (21% oxygen), SH-SY5Y
[14] = 1 mg/mL, 24 hours, normoxic, SH-SY5Y
[15] = 4 mg/mL, 6 hours, hypoxia (1% oxygen), SH-SY5Y
[16] = 4 mg/mL, 6 hours, normoxia (21% oxygen), SH-SY5Y
[17] = 4 mg/mL, 24 hours, normoxic, SH-SY5Y
[18] = 6 hours, normoxic, SH-SY5Y (FIG. 3)
[19] = normoxic (21% oxygen), 6 hours, 1 mg/mL and 4 mg/mL

Molecule	toxicity (cell viability) [1]	toxicity (cell viability) [2]	toxicity (cell viability) (NCI-H1650)	HIF-1α cellular protein levels (HIF1alpha protein; [12])	HIF-1α cellular protein levels (HIF1alpha protein; [13])	HIF-1α cellular protein levels (HIF1alpha protein; [14])	HIF-1α cellular protein levels (HIF1alpha protein; [15])	HIF-1α cellular protein levels (HIF1alpha protein; [16])	HIF-1α cellular protein levels (HIF1alpha protein; [17])	HIF-1α cellular protein levels (HIF1alpha protein; [18])	HIF1 alpha levels (HIF1 alpha protein [3])	HIF1 alpha levels (HIF1 alpha protein [4])	toxicity (cell viability) [5]	toxicity (cell viability) (SH-SY5Y cells [6])	modified Bederson and General Behavioral scores [8]	inherent toxicity (SH-SY5Y cells [9])	protection from Abeta induced toxicity (caspase 3/7 induction) (SH-SY5Y cells [9])	further results
CC(=O)N(O)CCCCCNC(=O)CCC(=O)N(O)CCCCCNC(=O)CCC(=O)N(O)CCCCCN [DFO, deferoxamine, reference compound]	significant toxicity	significant toxicity																
majority ApoTf: plasma derived transferrin composition, majority iron-free apo-transferrin (98% ApoTf, 2% HoloTf)	none of the transferrin molecules showed any detrimental effects	none of the transferrin molecules showed any detrimental effects	no toxicity	significant increase	significant increase	increased	significant increase	significant increase	increased	increase	Induce	Induce	no toxicity	No toxic effects	neither compositions of majority ApoTf nor majority HoloTf showed significant differences	lack of inherent toxicity	protect SH-SY5Y cells from Abeta induced toxicity	Glut1 mRNA levels in combination with small molecule activators of the HIF pathway (Glut1; [10]): increase synergistically and additively; Glut1 mRNA expression relative to HSA controls (Glut1; [11]): significantly increased; effect on HIF1 alpha protein levels in combination with M30 (HIF1alpha protein; 4 mg/mL protein plus 10 uM M30, 6 hrs, normal oxygen, SH-SY5Y): synergistic effects; effect on HIF1 alpha protein levels in combination with DFO (HIF1alpha protein; 4 mg/mL protein plus 200 uM DFO, 6 hrs, normal oxygen, SH-SY5Y): synergistic effects; VEGF mRNA levels in combination with small molecule activators of the HIF pathway (VEGF; [10]): increase synergistically and additively; VEGF mRNA expression relative to HSA controls (VEGF; [11]): significantly increased; volume of the infarcted area vs saline control [7]: significant decrease
majority HoloTf: plasma derived transferrin composition, majority diferric holo-transferrin (30% ApoTf, 70% HoloTf)			no toxicity	significant increase	significant increase	tendency towards an increase	tendency towards an increase	significant increase	significant increase	increase	Induce	Induce	no toxicity	no toxicity or detrimental effects	no detrimental effects	lack of inherent toxicity	protect SH-SY5Y cells from Abeta induced toxicity	Glut1 mRNA expression (Glut1; [19]): increased expression; VEGF mRNA expression (VEGF; [19]): increased expression of only Glut1
